From patent US12564638B2 (SHANGHAITECH UNIVERSITY, priority 2019, dated 2026)
Like-named read-outs stand apart in the source and are kept apart here.

Columns and labels:
Format in all cases: cell-based
[1] = system: PC9BracA1 (EGFR Exon 19 del+T790M, non-small cell lung cancer cells); assay: Cell viability assay (WST/CCK8), PC9Brac1 cells; conditions: read-out: IC50 (half inhibitory concentration)
From the text: (§1) The cell lines with abnormal EGFR expression used are as follows: • HCC827 cells (EGFR Exon19 del, non-small cell lung cancer cells); • PC9 cells (EGFR Exon 19 del, non-small cell lung cancer cells); • PC9BracA1 (EGFR Exon 19 del+T790M, non-small cell lung cancer cells) • H1975 (EGFR Exon T790M+L858R mutation, non-small cell lung cancer cell line) • BT474 cells (HER2 positive breast cancer cells)
(§2) All of the half inhibitory concentrations (IC50) of these compounds of the present invention were determined with WST reagent from Fuyuan Biotec Company. The specific experiment procedures are as follows: Cancer cells were planted in 96-well-plate at the density of 3 000 cells per well with 100 μL RPMI1640 completed culture medium. In the next day, compounds with indicated concentrations were added to the cells, DMSO was used as the negative control and the EGFR TKIs were used to treat cells as the positive groups. After 72 hours drug treatment, cell viability was measured by using the WST reagent following the instructions.

[2] = system: PC9 cells (EGFR Exon 19 del, non-small cell lung cancer cells); assay: Cell viability assay (WST/CCK8), PC9 cells; conditions: Homo sapiens, read-out: IC50 (half inhibitory concentration)
Summary of the method: (§3)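 Cells seeded at 3 000/well in RPMI1640 complete medium, dosed next day with compounds (top 10 μM, 3-fold, 10 points) for 72 h. Viability read with WST (CCK8) reagent; DMSO as negative control, EGFR TKIs as positive controls; IC50 determined.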

[3] = system: H1975 (EGFR T790M+L858R mutation, non-small cell lung cancer cell line); assay: Cell viability assay (WST/CCK8), H1975 cells; conditions: Homo sapiens, read-out: IC50 (half inhibitory concentration)
From the text: as §1, §2

[4] = system: HCC827 cells (EGFR Exon19 del, non-small cell lung cancer cells); assay: Cell viability assay (WST/CCK8), HCC827 cells; conditions: Homo sapiens, HCC827, 72 h, read-out: IC50 (half inhibitory concentration)
Summary of the method: as §3

[5] = Table 8, osimertinib-based compounds, Pc9Brc1, 72 hours, WST
[6] = PC-9, Table 8, osimertinib-based compounds, PC9, 72 hours, WST
[7] = NCI-H1975, Table 8, osimertinib-based compounds, H1975, 72 hours, WST
[8] = Table 8, osimertinib-based compounds, HCC827, 72 hours, WST

SMILES | IC50 [1, 5] [nM] | IC50 [2, 6] [nM] | IC50 [3, 7] [nM] | IC50 [4, 8] [nM] | further results
C=CC(=O)Nc1cc(Nc2nccc(-c3cn(C)c4ccccc34)n2)c(OC)cc1N(C)CCN(C)CCCCCCCC#Cc1cccc2c1CN(C1CCC(=O)NC1=O)C2=O (stereo not drawn) | 413 | 161 | 117 | 9 | 
C=CC(=O)Nc1cc(Nc2nccc(-c3cn(C)c4ccccc34)n2)c(OC)cc1N(C)CCN(C)C [Osimertinib, reference compound] |  |  |  |  | IC50 ([1]; 72 h): 354 nM; IC50 ([2]; PC-9, 72 h): 4 nM; IC50 ([3]; NCI-H1975, 72 h): 2 nM; IC50 [4]: 0.36 nM
C=CC(=O)Nc1cc2c(Nc3ccc(F)c(Cl)c3)ncnc2cc1OCCCN1CCN(C(=O)CCOCCOCCNc2cccc3c2C(=O)N(C2CCC(=O)NC2=O)C3=O)CC1 (stereo not drawn) [SIAIS262127, N-(4-((3-chloro-4-fluorophenyl)amino)-7-(3-(4-(3-(2-(2-((2-(2,6-dioxopiperidin-3-yl)-1,3-dioxoisoindolin-4-yl)amino)ethoxy)ethoxy)propanoyl)piperazin-1-yl)propoxy)quinazolin-6-yl)acrylamide] |  |  |  |  | IC50 ([1]; Table 7, canertinib-based compounds, PC9Brca1 (Ex19del + T790M)): 423 nM; IC50 ([2]; PC-9, Table 6, canertinib-based compounds, PC9 (Exon19 Del), 72 hours, WST): 9.7 nM; IC50 ([3]; NCI-H1975, Table 7, canertinib-based compounds, H1975 (L858R + T790M)): 468 nM; IC50 ([4]; Table 6, canertinib-based compounds, HCC827 (Exon19 Del), 72 hours, WST): 6.4 nM
C=CC(=O)Nc1cc(Nc2nccc(-c3cn(C)c4ccccc34)n2)c(OC)cc1N(C)CCNC [SIAIS337051, N-(4-methoxy-2-(methyl(2-(methylamino)ethyl)amino)-5-((4-(1-methyl-1H-indol-3-yl)pyrimidin-2-yl)amino)phenyl)acrylamide] | 479 | 2 | 1 | 1 | 
C=CC(=O)Nc1cc(Nc2nccc(-c3cn(C)c4ccccc34)n2)c(OC)cc1N(C)CCN(C)C(=O)COCCOCCOCCSc1cccc2c1CN(C1CCC(=O)NC1=O)C2=O (stereo not drawn) [SIAIS337076, N-(2-((14-((2-(2,6-dioxopiperidin-3-yl)-1-oxoisoindolin-4-yl)thio)-3-methyl-4-oxo-6,9,12-trioxa-3-azatetradecyl)(methyl)amino)-4-methoxy-5-((4-(1-methyl-1H-indol-3-yl)pyrimidin-2-yl)amino)phenyl)acrylamide] | 303 | 459 | 187 | 10 | 
C=CC(=O)Nc1cc(Nc2nccc(-c3cn(C)c4ccccc34)n2)c(OC)cc1N(C)CCN(C)CCCSc1cccc2c1CN(C1CCC(=O)NC1=O)C2=O (stereo not drawn) [SIAIS337079, N-(2-((2-((3-((2-(2,6-dioxopiperidin-3-yl)-1-oxoisoindolin-4-yl)thio)propyl)(methyl)amino)ethyl)(methyl)amino)-4-methoxy-5-((4-(1-methyl-1H-indol-3-yl)pyrimidin-2-yl)amino)phenyl)acrylamide] | 366 | 373 | 70 | 879 | 
C=CC(=O)Nc1cc(Nc2nccc(-c3cn(C)c4ccccc34)n2)c(OC)cc1N(C)CCN(C)CCCCCCCSc1cccc2c1CN(C1CCC(=O)NC1=O)C2=O (stereo not drawn) [SIAIS337083, N-(2-((2-((7-((2-(2,6-dioxopiperidin-3-yl)-1-oxoisoindolin-4-yl)thio)heptyl)(methyl)amino)ethyl)(methyl)amino)-4-methoxy-5-((4-(1-methyl-1H-indol-3-yl)pyrimidin-2-yl)amino)phenyl)acrylamide] | 676 | 512 | 494 | 46 | 
C=CC(=O)Nc1cc(Nc2nccc(-c3cn(C)c4ccccc34)n2)c(OC)cc1N(C)CCN(C)CCCCCCCCCCCSc1cccc2c1CN(C1CCC(=O)NC1=O)C2=O (stereo not drawn) [SIAIS337087, N-(2-((2-((11-((2-(2,6-dioxopiperidin-3-yl)-1-oxoisoindolin-4-yl)thio)undecyl)(methyl)amino)ethyl)(methyl)amino)-4-methoxy-5-((4-(1-methyl-1H-indol-3-yl)pyrimidin-2-yl)amino)phenyl)acrylamide] | 598 | 320 | 242 | 91 | 
C=CC(=O)Nc1cc(Nc2nccc(-c3cn(C)c4ccccc34)n2)c(OC)cc1N(C)CCN(C)Cc1ccc(CSc2cccc3c2CN(C2CCC(=O)NC2=O)C3=O)cc1 (stereo not drawn) [SIAIS337088, N-(2-((2-((4-(((2-(2,6-dioxopiperidin-3-yl)-1-oxoisoindolin-4-yl)thio)methyl)benzyl)(methyl)amino)ethyl)(methyl)amino)-4-methoxy-5-((4-(1-methyl-1H-indol-3-yl)pyrimidin-2-yl)amino)phenyl)acrylamide] | 662 | 302 | 239 | 5 | 

Second part, led by results:

IC50 [1, 5] [nM] | IC50 [2, 6] [nM] | IC50 [3, 7] [nM] | IC50 [4, 8] [nM] | SMILES | further results
238 | 91 | 145 | 3 | C=CC(=O)Nc1cc(Nc2nccc(-c3cn(C)c4ccccc34)n2)c(OC)cc1N(C)CCN(C)C(=O)COCCSc1cccc2c1CN(C1CCC(=O)NC1=O)C2=O (stereo not drawn) [SIAIS337074, N-(2-((2-(2-(2-((2-(2,6-dioxopiperidin-3-yl)-1-oxoisoindolin-4-yl)thio)ethoxy)-N-methylacetamido)ethyl)(methyl)amino)-4-methoxy-5-((4-(1-methyl-1H-indol-3-yl)pyrimidin-2-yl)amino)phenyl)acrylamide] | 
207 | 134 | 18 | 184 | C=CC(=O)Nc1cc(Nc2nccc(-c3cn(C)c4ccccc34)n2)c(OC)cc1N(C)CCN(C)CCCCCSc1cccc2c1CN(C1CCC(=O)NC1=O)C2=O (stereo not drawn) [SIAIS337081, N-(2-((2-((5-((2-(2,6-dioxopiperidin-3-yl)-1-oxoisoindolin-4-yl)thio)pentyl)(methyl)amino)ethyl)(methyl)amino)-4-methoxy-5-((4-(1-methyl-1H-indol-3-yl)pyrimidin-2-yl)amino)phenyl)acrylamide] | 
218 | 89 | 55 | 8 | C=CC(=O)Nc1cc(Nc2nccc(-c3cn(C)c4ccccc34)n2)c(OC)cc1N(C)CCN(C)CCCCCCSc1cccc2c1CN(C1CCC(=O)NC1=O)C2=O (stereo not drawn) [SIAIS337082, N-(2-((2-((6-((2-(2,6-dioxopiperidin-3-yl)-1-oxoisoindolin-4-yl)thio)hexyl)(methyl)amino)ethyl)(methyl)amino)-4-methoxy-5-((4-(1-methyl-1H-indol-3-yl)pyrimidin-2-yl)amino)phenyl)acrylamide] | 
239 | 143 | 462 | 6 | C=CC(=O)Nc1cc(Nc2nccc(-c3cn(C)c4ccccc34)n2)c(OC)cc1N(C)CCN(C)CCCCCCCCCSc1cccc2c1CN(C1CCC(=O)NC1=O)C2=O (stereo not drawn) [SIAIS337085, N-(2-((2-((9-((2-(2,6-dioxopiperidin-3-yl)-1-oxoisoindolin-4-yl)thio)nonyl)(methyl)amino)ethyl)(methyl)amino)-4-methoxy-5-((4-(1-methyl-1H-indol-3-yl)pyrimidin-2-yl)amino)phenyl)acrylamide] | 
194 | 64 | 203 | 3 | C=CC(=O)Nc1cc(Nc2nccc(-c3cn(C)c4ccccc34)n2)c(OC)cc1N(C)CCN(C)CCCCCCCCCCSc1cccc2c1CN(C1CCC(=O)NC1=O)C2=O (stereo not drawn) [SIAIS337086, N-(2-((2-((10-((2-(2,6-dioxopiperidin-3-yl)-1-oxoisoindolin-4-yl)thio)decyl)(methyl)amino)ethyl)(methyl)amino)-4-methoxy-5-((4-(1-methyl-1H-indol-3-yl)pyrimidin-2-yl)amino)phenyl)acrylamide] | 
107 | 82 | 16 | 15 | C=CC(=O)Nc1cc(Nc2nccc(-c3cn(C)c4ccccc34)n2)c(OC)cc1N(C)CCN(C)CCCC#Cc1cccc2c1CN(C1CCC(=O)NC1=O)C2=O (stereo not drawn) [SIAIS337089, N-(2-((2-((5-(2-(2,6-dioxopiperidin-3-yl)-1-oxoisoindolin-4-yl)pent-4-yn-1-yl)(methyl)amino)ethyl)(methyl)amino)-4-methoxy-5-((4-(1-methyl-1H-indol-3-yl)pyrimidin-2-yl)amino)phenyl)acrylamide] | 
